Assay [1] concerns Pseudomonas aeruginosa. The assay can be described thus: In vitro for minimum inhibitory concentration against Pseudomonas aeruginosa (40 strains). Format: functional.
Assay [2] deals with Staphylococcus aureus. The assay can be described thus: In vitro minimum inhibitory concentration against Staphylococcus aureus (20 strains). The class given is functional.

For orientation: MIC means the least concentration at which growth counts as inhibited. Read a low MIC as a more susceptible organism.

≈ marks a conversion by molar mass, not a printed value.

For the compound `Nc1nc(/C(=N/OC(C(=O)O)c2cc(O)c(O)cn2)C(=O)N[C@@H]2C(=O)N3C(C(=O)[O-])C(/C=C/C[n+]4cccc5ccsc54)CS[C@H]23)cs1` (stereo partly drawn), the results for the MIC in assay [1] and in assay [2] were 3.12 µg/mL (≈ 4.38 µM) and 0.92 µg/mL (≈ 1.29 µM), respectively.
The corresponding values for `N#Cc1sc(C(O/N=C(\C(=O)N[C@@H]2C(=O)N3C(C(=O)[O-])C(/C=C/C[n+]4cccc5ccccc54)CS[C@H]23)c2csc(N)n2)C(=O)O)c(O)c1O` (stereo partly drawn) are 38 µg/mL (≈ 51.6 µM) and 0.17 µg/mL (≈ 0.231 µM).
The corresponding values for `N#Cc1cc(C(O/N=C(\C(=O)N[C@@H]2C(=O)N3C(C(=O)[O-])C(/C=C/C[n+]4cccc5ccsc54)CS[C@H]23)c2csc(N)n2)C(=O)O)cc(O)c1O` (stereo partly drawn) are 0.06 µg/mL (≈ 0.0815 µM) and 1.4 µg/mL (≈ 1.9 µM).
Consider `N#Cc1ccc(C(O/N=C(\C(=O)N[C@@H]2C(=O)N3C(C(=O)[O-])C(/C=C/C[n+]4cccc5ccsc54)CS[C@H]23)c2csc(N)n2)C(=O)O)c(O)c1O` (stereo partly drawn), for which the MIC came to 0.12 µg/mL (≈ 0.163 µM) in assay [1] and 3.6 µg/mL (≈ 4.89 µM) in assay [2].

(Values after ChEMBL document CHEMBL1133392, “Synthesis of a dihydroxythiophene analogue of catechosporines” (2000).)
